This is an account of results in ChEMBL document CHEMBL1150434, “Semisynthetic modification of hygromycin A. 1. Synthesis and antibacterial activity of vinyl methyl and amide analogs” (1992).

Converted amounts (≈) assume the structure as drawn. The source made the active and inactive calls. The rule behind the calls is not given here.

For the first test, the system named is Brachyspira hyodysenteriae. Description: Antibacterial activity against Serpulina hyodysenteriae. Format: functional.
What is called MIC is the lowest concentration that inhibits growth of the organism. The low end stands for inhibition by little substance, the high end for a need for much substance. In turn, `CCC/C(=C\c1ccc(O[C@@H]2O[C@H]([C@@H](C)O)[C@@H](O)[C@@H]2O)c(O)c1)C(=O)N[C@@H]1[C@H](O)[C@@H](O)[C@H]2OCO[C@H]2[C@@H]1O` returned a minimal inhibitory concentration (MIC) of more than 200 µg/mL.

Molecule `C[C@@H](O)[C@H]1O[C@@H](Oc2ccc(/C=C(\Br)C(=O)N[C@@H]3[C@H](O)[C@@H](O)[C@H]4OCO[C@H]4[C@@H]3O)cc2O)[C@@H](O)[C@@H]1O` came in with a minimal inhibitory concentration (MIC) of 3.13 µg/mL (≈ 5.41 µM).

On to `CC/C(=C\c1ccc(O[C@@H]2O[C@H]([C@@H](C)O)[C@@H](O)[C@@H]2O)c(O)c1)C(=O)N[C@@H]1[C@H](O)[C@@H](O)[C@H]2OCO[C@H]2[C@@H]1O`, for which the MIC came to 3.13 µg/mL (≈ 5.93 µM).

Molecule `CC(=O)[C@H]1O[C@@H](Oc2ccc(C=C(C)C(=O)N[C@@H]3[C@H](O)[C@@H](O)[C@H]4OCO[C@H]4[C@@H]3O)cc2O)[C@@H](O)[C@@H]1O` [HYGROMYCIN A] registered a minimal inhibitory concentration (MIC) of 0.78 µg/mL (≈ 1.52 µM).

`C#CC/C(=C\c1ccc(O[C@@H]2O[C@H]([C@@H](C)O)[C@@H](O)[C@@H]2O)c(O)c1)C(=O)N[C@@H]1[C@H](O)[C@@H](O)[C@H]2OCO[C@H]2[C@@H]1O` had a minimal inhibitory concentration (MIC) of 100 µg/mL (≈ 186 µM).

On to `C[C@@H](O)[C@H]1O[C@@H](Oc2ccc(/C=C/C(=O)N[C@@H]3[C@H](O)[C@@H](O)[C@H]4OCO[C@H]4[C@@H]3O)cc2O)[C@@H](O)[C@@H]1O`, for which 100 µg/mL (≈ 200 µM) was the least that counted as inhibitory (MIC).

With `C=CC/C(=C\c1ccc(O[C@@H]2O[C@H]([C@@H](C)O)[C@@H](O)[C@@H]2O)c(O)c1)C(=O)N[C@@H]1[C@H](O)[C@@H](O)[C@H]2OCO[C@H]2[C@@H]1O`, the MIC is more than 200 µg/mL.

Molecule `C[C@@H](O)[C@H]1O[C@@H](Oc2ccc(/C=C(\Cl)C(=O)N[C@@H]3[C@H](O)[C@@H](O)[C@H]4OCO[C@H]4[C@@H]3O)cc2O)[C@@H](O)[C@@H]1O` returned an MIC of 6.25 µg/mL (≈ 11.7 µM).

Consider `C/C(=C\c1ccc(O[C@@H]2O[C@H]([C@@H](C)O)[C@@H](O)[C@@H]2O)c(O)c1)C(=O)N[C@@H]1[C@H](O)[C@@H](O)[C@H]2OCO[C@H]2[C@@H]1O`, for which the MIC came to 3.13 µg/mL (≈ 6.1 µM).

A further test has as its system Brachyspira hyodysenteriae. Description: Tested for antibacterial activity against Serpulina hyodysenteriae at a concentration of up to 200 ug/mL; IA= Inactive. The class given is functional, organism-based.
With `C/C(=C\c1ccc(O[C@@H]2O[C@H]([C@H](C)O)[C@@H](O)[C@@H]2O)c(O)c1)C(=O)N[C@H]1C(O)O[C@H](CO)[C@@H](O)[C@@H]1O` (some centres not stated), the outcome was inactive.

Turning to `C/C(=C\c1ccc(O[C@@H]2O[C@H]([C@H](C)O)[C@@H](O)[C@@H]2O)c(O)c1)C(=O)N1CCC[C@H]1CO`, the result was inactive.

In the case of `C/C(=C\c1ccc(O[C@@H]2O[C@H]([C@H](C)O)[C@@H](O)[C@@H]2O)c(O)c1)C(=O)N[C@@H]1C(O)O[C@H](CO)[C@@H](O)[C@@H]1O` (some centres not stated), the result was inactive.

Turning to `C/C(=C\c1ccc(O[C@@H]2O[C@H]([C@H](C)O)[C@@H](O)[C@@H]2O)c(O)c1)C(=O)N1CCCCC1CO` (some centres not stated), the outcome was inactive.

`C/C(=C\c1ccc(O[C@@H]2O[C@H]([C@H](C)O)[C@@H](O)[C@@H]2O)c(O)c1)C(=O)NC(CO)CO`: the outcome was inactive.

For the molecule `C/C(=C\c1ccc(O[C@@H]2O[C@H]([C@H](C)O)[C@@H](O)[C@@H]2O)c(O)c1)C(=O)N[C@@H]1CCCC[C@H]1O`, the outcome was inactive.

Consider `C/C(=C\c1ccc(O[C@@H]2O[C@H]([C@H](C)O)[C@@H](O)[C@@H]2O)c(O)c1)C(=O)NCCO`, for which the outcome was inactive.

For `C/C(=C\c1ccc(O[C@@H]2O[C@H]([C@H](C)O)[C@@H](O)[C@@H]2O)c(O)c1)C(=O)NC1(CO)CCCC1`, the outcome was inactive.

For the molecule `C/C(=C\c1ccc(O[C@@H]2O[C@H]([C@H](C)O)[C@@H](O)[C@@H]2O)c(O)c1)C(=O)N1CCNCC1`, the outcome was inactive.

Take `C/C(=C\c1ccc(O[C@@H]2O[C@H]([C@H](C)O)[C@@H](O)[C@@H]2O)c(O)c1)C(=O)N1CCN(C)CC1`: the result was inactive.

`C/C(=C\c1ccc(O[C@@H]2O[C@H]([C@H](C)O)[C@@H](O)[C@@H]2O)c(O)c1)C(=O)N[C@@H]1CCCC[C@@H]1O`: the result was inactive.

Take `C/C(=C\c1ccc(O[C@@H]2O[C@H]([C@H](C)O)[C@@H](O)[C@@H]2O)c(O)c1)C(=O)N1CCOCC1`: the outcome was inactive.

As for `C/C(=C\c1ccc(O[C@@H]2O[C@H]([C@H](C)O)[C@@H](O)[C@@H]2O)c(O)c1)C(=O)N[C@@H]1CCC[C@@H]1O`, the result was inactive.

Consider `C/C(=C\c1ccc(O[C@@H]2O[C@H]([C@H](C)O)[C@@H](O)[C@@H]2O)c(O)c1)C(=O)N1CCN(C(=O)N2CCNCC2)CC1`, for which the result was inactive.

Take `C/C(=C\c1ccc(O[C@@H]2O[C@H]([C@H](C)O)[C@@H](O)[C@@H]2O)c(O)c1)C(=O)N[C@@H]1CCC[C@H]1O`: the outcome was inactive.

`C/C(=C\c1ccc(O[C@@H]2O[C@H]([C@H](C)O)[C@@H](O)[C@@H]2O)c(O)c1)C(=O)N[C@H]1CC[C@H](O)CC1`: the result was inactive.

On to `C/C(=C\c1ccc(O[C@@H]2O[C@H]([C@H](C)O)[C@@H](O)[C@@H]2O)c(O)c1)C(=O)N1CCC[C@H]1C(=O)O`, for which the outcome was inactive.

For `C/C(=C\c1ccc(O[C@@H]2O[C@H]([C@H](C)O)[C@@H](O)[C@@H]2O)c(O)c1)C(=O)NC1CCCCC1`, the outcome was inactive.
